Reference: article PMC10214524, “A Systematic Approach to the Discovery of Protein–Protein Interaction Stabilizers” (ACS Central Science, 2023)
Where a SMILES comes first, the peptide text is derived from it.

How the values were obtained:
14-3-3σ [1] = target: T1, 14-3-3σ (Homo sapiens, UniProt P31947); experiment: 14-3-3σ titration to FITC-labeled phosphopeptide (peptide affinity)
T1 sequence (P31947 1-231 limits assumed): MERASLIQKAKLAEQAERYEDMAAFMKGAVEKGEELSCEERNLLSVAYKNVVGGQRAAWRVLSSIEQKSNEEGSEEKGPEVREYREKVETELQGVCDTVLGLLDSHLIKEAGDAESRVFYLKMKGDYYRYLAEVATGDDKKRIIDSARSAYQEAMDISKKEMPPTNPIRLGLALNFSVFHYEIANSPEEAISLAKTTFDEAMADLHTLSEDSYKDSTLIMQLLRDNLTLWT

14-3-3σ [2] = target: T1, 14-3-3σ; experiment: Ac-peptide competition assay against FITC-peptide (peptide affinity)

| Kd (14-3-3σ [1]) | Ki (14-3-3σ [2]) | SMILES |
| --- | --- | --- |
| 4.64 µM | 9.5 µM | CC(=O)N[C@@H](CCCNC(=N)N)C(=O)N[C@@H](CCC(N)=O)C(=O)N[C@@H](CCCNC(=N)N)C(=O)N[C@@H](CO)C(=O)N[C@H](C(=O)N[C@@H](COP(=O)(O)O)C(=O)N[C@H](C(=O)N1CCC[C@H]1C(=O)N[C@@H](CC(N)=O)C(=O)N[C@H](C(=O)N[C@@H](Cc1c[nH]cn1)C(N)=O)C(C)C)[C@@H](C)O)[C@@H](C)O [C-RAF, Ac-RQRST{pS}TPNVH-CONH2] (HELM PEPTIDE1{[ac].R.Q.R.S.T.[O=C([C@H](COP(=O)(O)O)N[*:1])[*:2]].T.P.N.V.H.[am]}$$$$V2.0) |
| 5.06 µM | 3.66 µM | CC(=O)N1CCC[C@H]1C(=O)N[C@@H](CCCNC(=N)N)C(=O)N[C@@H](CCCNC(=N)N)C(=O)N[C@@H](CCCNC(=N)N)C(=O)N1CCC[C@H]1C(=O)N[C@@H](CCC(=O)O)C(=O)N[C@@H](COP(=O)(O)O)C(=O)N[C@@H](C)C(=O)N1CCC[C@H]1C(=O)N[C@@H](C)C(=O)N[C@@H](CCC(=O)O)C(=O)N[C@@H](CO)C(=O)N[C@@H](CO)C(N)=O [SOS1, Ac-PRRRPE{pS}APAESS-CONH2] (HELM PEPTIDE1{[ac].P.R.R.R.P.E.[O=C([C@H](COP(=O)(O)O)N[*:1])[*:2]].A.P.A.E.S.S.[am]}$$$$V2.0) |
| 3.77 µM | 14.3 µM | CC[C@H](C)[C@H](NC(=O)[C@H](CC(=O)O)NC(=O)[C@@H]1CCCN1C(=O)[C@H](CO)NC(=O)[C@H](COP(=O)(O)O)NC(=O)[C@H](Cc1ccc(O)cc1)NC(=O)[C@H](CO)NC(=O)[C@H](CCCNC(=N)N)NC(=O)[C@H](CCCCN)NC(=O)[C@H](CC(C)C)NC(=O)[C@H](CCCCN)NC(C)=O)C(=O)N[C@H](C(=O)N[C@@H](CCC(N)=O)C(N)=O)[C@@H](C)O [USP8, Ac-KLKRSY{pS}SPDITQ-CONH2] (HELM PEPTIDE1{[ac].K.L.K.R.S.Y.[O=C([C@H](COP(=O)(O)O)N[*:1])[*:2]].S.P.D.I.T.Q.[am]}$$$$V2.0) |

| SMILES | Kd (14-3-3σ [1]) | Ki (14-3-3σ [2]) |
| --- | --- | --- |
| CC(=O)N[C@@H](CCCNC(=N)N)C(=O)N1CCC[C@H]1C(=O)N[C@@H](CCCNC(=N)N)C(=O)N[C@@H](CO)C(=O)N[C@@H](CS)C(=O)N[C@H](C(=O)N[C@@H](Cc1c[nH]c2ccccc12)C(=O)N1CCC[C@H]1C(=O)N[C@@H](CC(C)C)C(=O)N1CCC[C@H]1C(=O)N[C@@H](CCCNC(=N)N)C(N)=O)[C@@H](C)OP(=O)(O)O [FOXO1, Ac-RPRSC{pT}WPLPR-CONH2] (HELM PEPTIDE1{[ac].R.P.R.S.C.[C[C@@H](OP(=O)(O)O)[C@H](N[*:1])C(=O)[*:2]].W.P.L.P.R.[am]}$$$$V2.0) |  | 0.396 µM |
